Experimental data: patent publication US20250320205A1, “STAT6 DEGRADERS” (Gilead Sciences, Inc., priority 2024, published 2025)

What was measured:
[1] = tested on: Eotaxin-3 (CCL26) release; experiment: Human Whole Blood Eotaxin-3 Assay (IL-4 stimulated); type: cell-based; conditions: geometric mean across assay runs and compound batches, EC50 provided for test compounds with >80% Emax
Procedure, shortened: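 Lithium-heparin human whole blood preincubated 2 h at 37 °C with compounds (4-fold dilutions, triplicate, 0.5% DMSO final). Then stimulated with 400 pM final recombinant human IL-4 for 48 h. Eotaxin-3 in supernatant quantified by MSD immunoassay.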

[2] = biological target: T1, STAT6 (Homo sapiens, UniProt P42226); experiment: STAT6 Degrader Assay (HiBiT based, HeLa LgBiT clone 4.14 cells); type: cell-based; conditions: geometric mean across assay runs and compound batches; DC50 provided for test compounds with >80% Emax; read-out: STAT6 degradation DC50
T1 construct: These cells express endogenous STAT6; host or cells: HeLa LgBiT clone 4.14 (CRISPR knock-in of HiBiT into the endogenous STAT6 gene)
T1 sequence (P42226 1-847): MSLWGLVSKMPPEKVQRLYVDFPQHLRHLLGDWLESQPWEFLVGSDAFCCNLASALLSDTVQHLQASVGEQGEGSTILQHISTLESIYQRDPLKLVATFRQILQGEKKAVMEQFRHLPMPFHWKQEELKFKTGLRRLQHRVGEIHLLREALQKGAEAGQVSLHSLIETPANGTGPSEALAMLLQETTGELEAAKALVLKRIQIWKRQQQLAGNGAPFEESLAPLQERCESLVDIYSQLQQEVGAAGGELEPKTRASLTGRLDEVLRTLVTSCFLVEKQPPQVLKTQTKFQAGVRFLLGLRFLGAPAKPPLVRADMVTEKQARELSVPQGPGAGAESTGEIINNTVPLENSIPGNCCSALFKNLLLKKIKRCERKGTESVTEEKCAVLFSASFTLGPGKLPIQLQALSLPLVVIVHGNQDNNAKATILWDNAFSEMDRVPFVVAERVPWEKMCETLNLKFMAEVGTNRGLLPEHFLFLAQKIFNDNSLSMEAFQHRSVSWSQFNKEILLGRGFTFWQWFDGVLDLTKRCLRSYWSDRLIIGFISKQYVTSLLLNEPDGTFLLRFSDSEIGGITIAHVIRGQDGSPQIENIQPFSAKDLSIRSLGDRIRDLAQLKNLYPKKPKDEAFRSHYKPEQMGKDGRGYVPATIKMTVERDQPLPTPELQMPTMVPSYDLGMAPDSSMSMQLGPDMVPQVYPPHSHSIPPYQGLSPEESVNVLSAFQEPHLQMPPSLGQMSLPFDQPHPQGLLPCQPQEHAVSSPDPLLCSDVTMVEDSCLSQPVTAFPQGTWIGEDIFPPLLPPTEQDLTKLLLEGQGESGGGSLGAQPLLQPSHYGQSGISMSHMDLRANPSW
Procedure, shortened: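 DC50 (nM) comes from NanoBiT luminescence of HiBiT-knock-in STAT6 in HeLa LgBiT clone 4.14 cells, treated 4-24 h at 37° C. Luminescence reflects non-degraded STAT6, with 50 μM terfenadine wells taken as full degradation.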

| SMILES | EC50 ([1]; Homo sapiens) [nM] | DC50 [2] [nM] | EC50 [1] [nM] |
| --- | --- | --- | --- |
| Cc1cc(C(=O)N2CCn3nc(CN4CCC(c5ccc(NC6CCC(=O)NC6=O)cc5F)CC4)cc3C2)cc(F)c1C1=CCN([C@@H](C)c2cc3c(-n4cc(F)c5c(c4=O)CCN5)ccnc3n2C)CC1 (stereo partly drawn) [Example 2g14, 3-((3-fluoro-4-(1-((5-(3-fluoro-4-(1-((S)-1-(4-(7-fluoro-4-oxo-1,2,3,4-tetra-hydro-5H-pyrrolo[3,2-c]pyridin-5-yl)-1-methyl-1H-pyrrolo[2,3-b]pyridin-2-yl)-ethyl)-1,2,3,6-tetrahydro-pyridin-4-yl)-5-methylbenzo-yl)-4,5,6,7-tetrahydropyrazolo [1,5-a]pyrazin-2-yl)methyl)-piperidin-4-yl)phenyl)amino)-piperidine-2,6-dione] | 3.5 | 2.2 |  |
| CNc1ccn(-c2ccnc3c2cc([C@H](C)N2CC=C(c4c(C)cc(C(=O)N5CCn6nc(CN7CCC(c8ccc(NC9CCC(=O)NC9=O)cc8F)CC7)cc6C5)cc4F)CC2)n3C)c(=O)c1 (stereo partly drawn) [Example 2g15, 3-((3-fluoro-4-(1-((5-(3-fluoro-5-methyl-4-(1-((S)-1-(1-methyl-4-(4-(methyl-amino)-2-oxopyridin-1(2H)-yl)-1H-pyrrolo[2,3-b]pyridin-2-yl)ethyl)-1,2,3,6-tetrahydro-pyridin-4-yl)benzoyl)-4,5,6,7-tetrahydropyrazolo[1,5-a]pyr-azin-2-yl)methyl)piperidin-4-yl)phenyl)amino)piperidine-2,6-dione] | 0.1 | 0.2 |  |
| Cc1cc(C(=O)N2CCC(CN3CCN(c4ccc(NC5CCC(=O)NC5=O)cc4F)CC3)CC2)cc(F)c1C1=CCN([C@@H](C)c2cc3c(-n4ccc5c(c4=O)CCN5)ccnc3n2C)CC1 (stereo partly drawn) [Example 2g18, 3-((3-fluoro-4-(4-((1-(3-fluoro-5-methyl-4-(1-((S)-1-(1-methyl-4-(4-oxo-1,2,3,4-tetrahydro-5H-pyrrolo[3,2-c]pyridin-5-yl)-1H-pyrrolo[2,3-b]pyridin-2-yl)ethyl)-1,2,3,6-tetrahydropyridin-4-yl)benzo-yl)piperidin-4-yl)methyl)-piperazin-1-yl)phenyl)amino)-piperidine-2,6-dione] | 5.5 | 3.1 |  |
| Cc1cc(C(=O)N2CCn3nc(CN4CCC(c5ccc(NC6CCC(=O)NC6=O)cc5F)CC4)cc3C2)cc(F)c1C1=CCN([C@@H](C)c2cc3c(-n4ccc5c(c4=O)CCN5)ccnc3n2C)CC1 (stereo partly drawn) [Example 2g25, 3-((3-fluoro-4-(1-((5-(3-fluoro-5-methyl-4-(1-((S)-1-(1-methyl-4-(4-oxo-1,2,3,4-tetrahydro-5H-pyrrolo[3,2-c]pyridin-5-yl)-1H-pyrrolo[2,3-b]pyridin-2-yl)ethyl)-1,2,3,6-tetrahydropyridin-4-yl)benzo-yl)-4,5,6,7-tetrahydropyrazolo [1,5-a]pyrazin-2-yl)methyl)-piperidin-4-yl)phenyl)amino)-piperidine-2,6-dione] | 0.4 | 0.6 |  |
| CNc1ccn(-c2ccnc3c2cc([C@H](C)N2CC=C(c4c(C)cc(C(=O)N5CCn6nc(CC7(O)CCN(c8ccc(NC9CCC(=O)NC9=O)cc8F)CC7)cc6C5)cc4F)CC2)n3C)c(=O)c1 (stereo partly drawn) [Example 2g26, 3-((3-fluoro-4-(4-((5-(3-fluoro-5-methyl-4-(1-((S)-1-(1-methyl-4-(4-(methyl-amino)-2-oxopyridin-1(2H)-yl)-1H-pyrrolo[2,3-b]pyridin-2-yl)ethyl)-1,2,3,6-tetrahydro-pyridin-4-yl)benzoyl)-4,5,6,7-tetrahydropyrazolo[1,5-a]pyr-azin-2-yl)methyl)-4-hydroxy-piperidin-1-yl)phenyl)amino)-piperidine-2,6-dione] | 0.9 | 1.5 |  |
| CNc1cc(=O)n(-c2ccnc3c2cc(CN2CCC(c4c(F)cc(C(=O)N5CCC(CN6CCN(c7ccc(NC8CCC(=O)NC8=O)cc7F)CC6)CC5)cc4F)CC2)n3C)cc1F (stereo not drawn) [Example 2g32, 3-((4-(4-((1-(3,5-difluoro-4-(1-((4-(5-fluoro-4-(methyl-amino)-2-oxopyridin-1(2H)-yl)-1-methyl-1H-pyrrolo[2,3-b]pyridin-2-yl)methyl)piperi-din-4-yl)benzoyl)piperidin-4-yl)methyl)piperazin-1-yl)-3-fluorophenyl)amino)piperi-dine-2,6-dione] | 56.9 | 10.6 |  |
| Cn1c(CN2CCC(c3c(F)cc(C(=O)N4CCC(CN5CCN(c6ccc(NC7CCC(=O)NC7=O)cc6F)CC5)CC4)cc3F)CC2)cc2c(-n3ccc4c(c3=O)CCN4)ccnc21 (stereo not drawn) [Example 2g35, 3-((4-(4-((1-(3,5-difluoro-4-(1-((1-methyl-4-(4-oxo-1,2,3,4-tetrahydro-5H-pyrrolo [3,2-c]pyridin-5-yl)-1H-pyrrolo[2,3-b]pyridin-2-yl)-methyl)piperidin-4-yl)benzo-yl)piperidin-4-yl)methyl)-piperazin-1-yl)-3-fluorophen-yl)-amino)piperidine-2,6-dione] | 73.2 | 16 |  |
| CNc1ccn(-c2ccnc3c2cc([C@H](C)N2CCC(c4c(C)cc(C(=O)N5CCC(CN6CCN(c7ccc(NC8CCC(=O)NC8=O)cc7F)CC6)CC5)cc4F)CC2)n3C)c(=O)c1 (stereo partly drawn) [Example 2g43, 3-((3-fluoro-4-(4-((1-(3-fluoro-5-methyl-4-(1-((S)-1-(1-methyl-4-(2-(methyl-amino)-2-oxopyridin-1(2H)-yl)-1H-pyrrolo[2,3-b]pyridin-2-yl)ethyl)piperidin-4-yl)-benzoyl)piperidin-4-yl)meth-yl)piperazin-1-yl)phenyl)-amino)piperidine-2,6-dione] | 64.6 | 15.7 |  |
| CNc1ccn(-c2ccnc3c2cc([C@H](C)N2CC=C(c4c(C)cc(C(=O)N5CCn6nc(CN7CCC(c8ccc(NC9CCC(=O)NC9=O)c(OC)c8)CC7)c(Cl)c6C5)cc4F)CC2)n3C)c(=O)c1 (stereo partly drawn) [Example 2g52, 3-((4-(1-((3-chloro-5-(3-fluoro-5-methyl-4-(1-((S)-1-(1-methyl-4-(4-(methyl-amino)-2-oxopyridin-1(2H)-yl)-1H-pyrrolo[2,3-b]pyridin-2-yl)ethyl)-1,2,3,6-tetrahydro-pyridin-4-yl)benzoyl)-4,5,6,7-tetrahydropyrazolo[1,5-a]pyrazin-2-yl)methyl)piperi-din-4-yl)-2-methoxyphenyl)-amino)piperidine-2,6-dione] | 0.3 | 0.8 |  |
| C[C@@H](c1cc2c(-n3ccc4c(c3=O)CCN4)ccnc2n1C)N1CCC(c2ccc(C(=O)N3CCN(CC4CCN(c5ccc(NC6CCC(=O)NC6=O)cc5F)CC4)CC3)cc2)CC1 (stereo partly drawn) [Example 2g53, 3-((3-fluoro-4-(4-((4-(4-(1-((S)-1-(1-methyl-4-(4-oxo-1,2,3,4-tetrahydro-5H-pyrrolo [3,2-c]pyridin-5-yl)-1H-pyrrolo[2,3-b]pyridin-2-yl)-ethyl)piperidin-4-yl)benzoyl)-piperazin-1-yl)methyl)piperi-din-1-yl)phenyl)amino)piperi-dine-2,6-dione] |  | 47.8 | 63.1 |
| Cc1cc(C(=O)N2CCC(CN3CCN(c4ccc(NC5CCC(=O)NC5=O)cc4F)CC3)CC2)cc(F)c1C1=CCN(Cc2cc3c(-n4ccc5c(c4=O)CCN5)ccnc3n2C)CC1 (stereo not drawn) [Example 2g59, 3-((3-fluoro-4-(4-((1-(3-fluoro-5-methyl-4-(1-((1-methyl-4-(4-oxo-1,2,3,4-tetrahydro-5H-pyrrolo[3,2-c]pyridin-5-yl)-1H-pyrrolo [2,3-b]pyridin-2-yl)methyl)-1,2,3,6-tetrahydropyridin-4-yl)benzoyl)piperidin-4-yl)-methyl)piperazin-1-yl)phen-yl)amino)piperidine-2,6-dione] | 20.4 | 6.1 |  |
| CNc1cc(=O)n(-c2ccnc3c2cc(CN2CC=C(c4c(F)cc(C(=O)N5CCC(CN6CCN(c7ccc(NC8CCC(=O)NC8=O)cc7F)CC6)CC5)cc4F)CC2)n3C)cc1F (stereo not drawn) [Example 2g65, 3-((4-(4-((1-(3,5-difluoro-4-(1-((4-(5-fluoro-4-(methyl-amino)-2-oxopyridin-1(2H)-yl)-1-methyl-1H-pyrrolo[2,3-b]pyridin-2-yl)methyl)-1,2,3,6-tetrahydropyridin-4-yl)benzoyl)piperidin-4-yl)-methyl)piperazin-1-yl)-3-fluorophenyl)amino)piperi-dine-2,6-dione] | 408 | 120 |  |
